Assay results published in patent US9156831B2, “Chemical compounds” (ASTRAZENECA AB, priority 2013, dated 2015).

Legend:
[1] = test system: HCC1187; experiment: Cell proliferation assay (MTS); format: cell-based, human
Description: (§1) The sensitivity of a panel of human cancer cell lines to the effects of compounds was determined in a standard proliferation assay. Cell lines were sourced through the AstraZeneca Cell Bank.
(§2) Cells were plated in 96 well plates at densities of 1000-6000 cells per well in RPMI media containing 10% FBS. After incubation at 37° C. for 16 hours, various concentrations of compound were added to the assay plates. After incubation for an additional 72 h, the viable cells were determined by the addition of MTS reagent (Promega #3582) to each well for 2 h. MTS is a tetrazolium salt that is bioreduced by metabolically active cells in the presence of an electron coupling reagent to formazan. The formazan product was then quantitated by absorbance at 490 nm, as an indicator of the relative number of live cells. In order to determine the GI50 (concentration at which growth of cells was inhibited by 50%) the relative number of cells present at the time of drug addition was determined by comparison with the MTS readout before the drug was added, and this value was subtracted from the 72 hr value of untreated cells as a measure of cell growth during the assay.

[2] = test system: SNU638; experiment: Cell proliferation assay (MTS); format: cell-based, human
Description: as §1, §2

[3] = test system: MV411; experiment: Cell proliferation assay (MTS); format: cell-based, human
Description: (§3) The sensitivity of a panel of human cancer cell lines to the effects of compounds was determined in a standard proliferation assay.
as §2

[4] = test system: SC1; experiment: Cell proliferation assay (MTS); format: cell-based, human
Description: as §3
(§4) Cells were plated in 96 well plates at densities of 1000-6000 cells per well in RPMI media containing 10% FBS. After incubation at 37° C. for 16 hours, various concentrations of compound were added to the assay plates. After incubation for an additional 72 h, the viable cells were determined by the addition of MTS reagent (Promega #3582) to each well for 2 h. […] The formazan product was then quantitated by absorbance at 490 nm, as an indicator of the relative number of live cells. In order to determine the GI50 (concentration at which growth of cells was inhibited by 50%) the relative number of cells present at the time of drug addition was determined by comparison with the MTS readout before the drug was added, and this value was subtracted from the 72 hr value of untreated cells as a measure of cell growth during the assay.

[5] = test system: LUDLU1; experiment: Cell proliferation assay (MTS); format: cell-based, human
Description: as §3, §4

[6] = test system: JEKO1; experiment: Cell proliferation assay (MTS); format: cell-based, human
Description: as §1, §2

[7] = test system: MONOMAC6; experiment: Cell proliferation assay (MTS); format: cell-based, human
Description: as §3, §2

[8] = test system: LK2; experiment: Cell proliferation assay (MTS); format: cell-based, human
Description: as §1, §2

[9] = test system: AMO1; experiment: Cell proliferation assay (MTS); format: cell-based, human
Description: as §1, §2

[10] = test system: KU1919; experiment: Cell proliferation assay (MTS); format: cell-based, human
Description: as §3, §2

[11] = test system: A2058; experiment: Cell proliferation assay (MTS); format: cell-based, human
Description: as §3, §2

[12] = test system: DU145; experiment: Cell proliferation assay (MTS); format: cell-based, human
Description: as §3, §4

[13] = test system: L363; experiment: Cell proliferation assay (MTS); format: cell-based, human
Description: as §3, §2

[14] = test system: KP4; experiment: Cell proliferation assay (MTS); format: cell-based, human
Description: as §1, §2

[15] = test system: T24; experiment: Cell proliferation assay (MTS); format: cell-based, human
Description: as §1, §2

[16] = test system: SW403; experiment: Cell proliferation assay (MTS); format: cell-based, human
Description: as §3, §2

[17] = test system: CFPAC1; experiment: Cell proliferation assay (MTS); format: cell-based, human
Description: as §1, §2

[18] = test system: SU8686; experiment: Cell proliferation assay (MTS); format: cell-based, human
Description: as §3, §4

[19] = test system: SKBR3; experiment: Cell proliferation assay (MTS); format: cell-based, human
Description: as §3, §2

[20] = test system: HCC1937; experiment: Cell proliferation assay (MTS); format: cell-based, human
Description: as §3, §2

[21] = test system: H522; experiment: Cell proliferation assay (MTS); format: cell-based, human
Description: as §3, §4

[22] = test system: SW948; experiment: Cell proliferation assay (MTS); format: cell-based, human
Description: as §3, §2

[23] = test system: PNT1A; experiment: Cell proliferation assay (MTS); format: cell-based, human
Description: as §3, §2

[24] = test system: CALU3; experiment: Cell proliferation assay (MTS); format: cell-based, human
Description: as §1, §4

[25] = test system: HUH1; experiment: Cell proliferation assay (MTS)
Description: as §3, §4

[26] = test system: YAPC; experiment: Cell proliferation assay (MTS); format: cell-based, human
Description: as §1, §2

[27] = test system: HUPT4; experiment: Cell proliferation assay (MTS); format: cell-based, human
Description: as §3, §2

[28] = test system: MCF7 xenograft; experiment: Tumour growth inhibition, MCF7 xenograft model; format: in vivo, mouse; settings: Example 3 alone 25 mg/kg twice daily every day; FIG. 12
Description: MCF7 is an estrogen receptor positive breast tumour cell line carrying a mutation in the PIKC3CA gene (E545K). […] SCID mice (AZ UK) were transplanted subcutaneously (s.c.) with human breast adenocarcinoma cell line MCF7 (ICRF London) to determine anti-tumour activity of PI3 kinase inhibitors. Mice were implanted with a 0.5 mg 21 day oestrogen pellet (Innovative Research of America) 24 hours prior to cell implantation. 5×10^6 cells in 50% matrigel (BD Bioscience) were injected s.c. on the left flank of the animals.
Animals were randomised into groups of 10-15 when tumours reached a volume of ˜200-300 mm^3 and treatment commenced. Animals were dosed for 3-4 weeks by peroral route, with compound in a suitable vehicle at defined doses and schedules. Tumours were measured two-three times weekly by caliper and volume of tumours calculated using elliptical formula (pi/6×width×width×length).

[29] = test system: SW900; experiment: Cell proliferation assay (MTS); format: cell-based, human
Description: as §1, §2

[30] = test system: H358; experiment: Cell proliferation assay (MTS); format: cell-based, human
Description: as §3, §4

[31] = test system: HT1197; experiment: Cell proliferation assay (MTS); format: cell-based, human
Description: as §3, §2

[32] = test system: H226; experiment: Cell proliferation assay (MTS); format: cell-based, human
Description: as §3, §2

[33] = test system: NAMALWA; experiment: Cell proliferation assay (MTS); format: cell-based, human
Description: as §3, §4

[34] = test system: MDAMB468; experiment: Cell proliferation assay (MTS); format: cell-based, human
Description: as §3, §4

[35] = test system: SW48; experiment: Cell proliferation assay (MTS); format: cell-based, human
Description: as §1, §2

[36] = test system: SNU878; experiment: Cell proliferation assay (MTS); format: cell-based, human
Description: as §3, §2

[37] = test system: HPAFII; experiment: Cell proliferation assay (MTS); format: cell-based, human
Description: as §3, §2

[38] = test system: HEL9217; experiment: Cell proliferation assay (MTS); format: cell-based, human
Description: as §1, §2

[39] = Homo sapiens, Breast, PIK3CA WT
[40] = Homo sapiens, Blood/lymph, PIK3CA WT
[41] = Homo sapiens, Colon, PIK3CA MUT

In the case of `CCn1nc(C2CCN(C(=O)CCO)CC2)nc1-c1cnc(N)c(-c2nnc(C(C)(C)C)o2)n1` [Example 3, 1-(4-(5-(5-amino-6-(5-tert-butyl-1,3,4-oxadiazol-2-yl)pyrazin-2-yl)-1-ethyl-1H-1,2,4-triazol-3-yl)piperidin-1-yl)-3-hydroxypropan-1-one], the Category [1] was “Sensitive (sensitive (GI50<=1.0 μM))”, the GI50 [1, 39] was 0.509 µM and the Category [2] was “Resistant (resistant (GI50>1.0 μM))”. The GI50 ([2]; Homo sapiens, SNU-638, Stomach, PIK3CA WT) was 8.22 µM, the Category [3] was “Sensitive (sensitive (GI50<=1.0 μM))” and the GI50 ([3]; Homo sapiens, MV4-11, Blood/lymph, PIK3CA WT) was 0.382 µM. The Category [4] was “Resistant (resistant (GI50>1.0 μM))”, the GI50 ([4]; Homo sapiens, SC-1, Blood/lymph, PIK3CA WT) was 30 µM and the Category [5] was “Resistant (resistant (GI50>1.0 μM))”. The GI50 ([5]; Homo sapiens, LUDLU-1, Lung, PIK3CA WT) was 4.65 µM, the Category [6] was “Sensitive (sensitive (GI50<=1.0 μM))” and the GI50 ([6]; Homo sapiens, JeKo-1, Blood/lymph, PIK3CA WT) was 0.499 µM. The Category [7] was “Resistant (resistant (GI50>1.0 μM))”, the GI50 ([7]; Homo sapiens, MONO-MAC-6, Blood/lymph, PIK3CA WT) was 2.62 µM and the Category [8] was “Sensitive (sensitive (GI50<=1.0 μM))”. The GI50 ([8]; Homo sapiens, LK-2, Lung, PIK3CA WT) was 0.588 µM, the Category [9] was “Resistant (resistant (GI50>1.0 μM))” and the GI50 [9, 40] was 26.9 µM. For the same compound, the Category [10] was “Resistant (resistant (GI50>1.0 μM))”, the GI50 ([10]; Homo sapiens, KU-19-19, Bladder, PIK3CA WT) was 30 µM and the Category [11] was “Resistant (resistant (GI50>1.0 μM))”. For the same compound, the GI50 ([11]; Homo sapiens, Skin, PIK3CA WT) was 30 µM, the Category [12] was “Resistant (resistant (GI50>1.0 μM))” and the GI50 ([12]; Homo sapiens, DU-145, Prostate, PIK3CA WT) was 8.24 µM. The Category [13] was “Sensitive (sensitive (GI50<=1.0 μM))”, the GI50 ([13]; Homo sapiens, L-363, Blood/lymph, PIK3CA MUT) was 0.681 µM and the Category [14] was “Resistant (resistant (GI50>1.0 μM))”. The GI50 ([14]; Homo sapiens, KP-4, Pancreas, PIK3CA WT) was 15.1 µM, the Category [15] was “Resistant (resistant (GI50>1.0 μM))” and the GI50 ([15]; Homo sapiens, T-24, Bladder, PIK3CA WT) was 30 µM. The Category [16] was “Resistant (resistant (GI50>1.0 μM))”, the GI50 ([16]; Homo sapiens, SW-403, Colon, PIK3CA MUT) was 2.61 µM and the Category [17] was “Resistant (resistant (GI50>1.0 μM))”. The GI50 ([17]; Homo sapiens, CFPAC-1, Pancreas, PIK3CA WT) was 3.38 µM, the Category [18] was “Resistant (resistant (GI50>1.0 μM))” and the GI50 ([18]; Homo sapiens, SU.86.86, Pancreas, PIK3CA WT) was 18 µM. The Category [19] was “Resistant (resistant (GI50>1.0 μM))”, the GI50 ([19]; Homo sapiens, SK-BR-3, Breast, PIK3CA WT) was 1.59 µM and the Category [20] was “Resistant (resistant (GI50>1.0 μM))”. The GI50 [20, 39] was 30 µM, the Category [21] was “Resistant (resistant (GI50>1.0 μM))” and the GI50 ([21]; Homo sapiens, NCI-H522, Lung, PIK3CA WT) was 15.6 µM. The Category [22] was “Sensitive (sensitive (GI50<=1.0 μM))”, the GI50 [22, 41] was 0.911 µM and the Category [23] was “Resistant (resistant (GI50>1.0 μM))”. For the same compound, the GI50 ([23]; Homo sapiens, Prostate, PIK3CA WT) was 2.17 µM, the Category [24] was “Resistant (resistant (GI50>1.0 μM))” and the GI50 ([24]; Homo sapiens, Calu-3, Lung, PIK3CA WT) was 1.3 µM. The Category ([25]; HUH1) was “Resistant (resistant (GI50>1.0 μM))”, the GI50 ([25]; Homo sapiens, HuH-1) was 22.3 µM and the Category [26] was “Resistant (resistant (GI50>1.0 μM))”. The GI50 ([26]; Homo sapiens, Pancreas, PIK3CA WT) was 30 µM, the Category [27] was “Sensitive (sensitive (GI50<=1.0 μM))” and the GI50 ([27]; Homo sapiens, HuP-T4, Pancreas, PIK3CA WT) was 0.641 µM. The tumour growth [28] was “caused some tumour regression”, the Category [29] was “Resistant (resistant (GI50>1.0 μM))” and the GI50 ([29]; Homo sapiens, Lung, PIK3CA WT) was 30 µM. For the same compound, the Category [30] was “Resistant (resistant (GI50>1.0 μM))”, the GI50 ([30]; Homo sapiens, NCI-H358, Lung, PIK3CA WT) was 4.64 µM and the Category [31] was “Resistant (resistant (GI50>1.0 μM))”. The GI50 ([31]; Homo sapiens, Bladder, PIK3CA MUT) was 2.8 µM, the Category [32] was “Resistant (resistant (GI50>1.0 μM))” and the GI50 ([32]; Homo sapiens, NCI-H226, Lung, PIK3CA WT) was 10.1 µM. For the same compound, the Category [33] was “Resistant (resistant (GI50>1.0 μM))”, the GI50 [33, 40] was 17.6 µM and the Category [34] was “Resistant (resistant (GI50>1.0 μM))”. For the same compound, the GI50 ([34]; Homo sapiens, MDA-MB-468, Breast, PIK3CA WT) was 9.33 µM, the Category [35] was “Sensitive (sensitive (GI50<=1.0 μM))” and the GI50 [35, 41] was 0.513 µM. For the same compound, the Category [36] was “Resistant (resistant (GI50>1.0 μM))”, the GI50 ([36]; Homo sapiens, Liver, PIK3CA WT) was 16.1 µM and the Category [37] was “Resistant (resistant (GI50>1.0 μM))”. For the same compound, the GI50 ([37]; Homo sapiens, HPAF-II, Pancreas, PIK3CA WT) was 2.63 µM, the Category [38] was “Resistant (resistant (GI50>1.0 μM))” and the GI50 ([38]; Homo sapiens, HEL 92.1.7, Blood/lymph, PIK3CA INCON) was 30 µM.
